Starred links: 1 amine or outer side, 2 acyl side, 3 side chain; linkers in the order of their positions; H or OH if unused. Non-standard residues stand in square brackets, D forms with d. Residues, ends and D or L forms follow the SMILES beside them. *: point of attachment. Pyrrolidine(2S-CN) = N#C[C@@H]1CCCN1*; εLys = N[C@@H](CCCCN[*:1])C(=O)[*:2]; AEEA = NCCOCCOCC(=O)O

Test [1] deals with plasma carboxypeptidase. The test is described as follows: Carboxypeptidase activity assay in human plasma, PYY(3-35) formation. It counts as biochemical. As to conditions: for inhibition of formation of PYY(3-35): 0.5 mM, human plasma. How it is done: Carboxypeptidase activity assays were performed in the presence of various agents to test for carboxypeptidase inhibitor activity of the agents.
The remainder of the sample was placed in an incubator at 37° C., mixing at 600 RPM for sixty minutes. At 10 minute intervals, a 100 μL sample of the mixture was removed and transferred to a separate microcentrifuge tubes. Following the transfer of the 100 μL sample at the zero time point and each 10 minute interval, each collected sample was extracted by slow addition of 100 μl cold 0.2% formic acid:acetonitrile, while mixing. After addition of the acetonitrile solution, the sample was vortex mixed at high speed for 15 seconds. The extracted samples were stored at −20° C. for at least 20 minutes and then centrifuged at 11,000×g for 10 minutes at 5° C. The supernatant of each sample was transferred to a new microcentrifuge tube, centrifuged again, and finally transferred for LC/MS analysis. The MS analysis was a Q1 single ion monitoring method that detects the most intense ion of the parent molecule and the peptide fragment of interest.

The target of test [2] is Recombinant DPP-IV (Homo sapiens, UniProt P27487). The test is described as follows: DPP-IV inhibition assay with chromogenic substrate. Format: biochemical. The arrangement: purchased Chemicon International, Inc., Temecula, Calif. To be noted: mean SEM of at least three determinations. The protocol: The reactions were initiated by adding 1 μl DPP-IV enzyme (0.05 mU) into each well and the absorbance at 410 nm was measured with 20-sec intervals over a 30-min period using a SpectraMax plate reader (Molecular Devices, Corp., Sunnyvale, Calif.). The velocities of each reaction at different inhibitor concentrations were calculated and the reciprocal velocities were plotted against inhibitor concentrations in Dixon graphs. The IC50 values of reaction velocities were calculated through fitting the plots with linear equation.
Sequence of Recombinant DPP-IV (P27487 whole entry, species assumed): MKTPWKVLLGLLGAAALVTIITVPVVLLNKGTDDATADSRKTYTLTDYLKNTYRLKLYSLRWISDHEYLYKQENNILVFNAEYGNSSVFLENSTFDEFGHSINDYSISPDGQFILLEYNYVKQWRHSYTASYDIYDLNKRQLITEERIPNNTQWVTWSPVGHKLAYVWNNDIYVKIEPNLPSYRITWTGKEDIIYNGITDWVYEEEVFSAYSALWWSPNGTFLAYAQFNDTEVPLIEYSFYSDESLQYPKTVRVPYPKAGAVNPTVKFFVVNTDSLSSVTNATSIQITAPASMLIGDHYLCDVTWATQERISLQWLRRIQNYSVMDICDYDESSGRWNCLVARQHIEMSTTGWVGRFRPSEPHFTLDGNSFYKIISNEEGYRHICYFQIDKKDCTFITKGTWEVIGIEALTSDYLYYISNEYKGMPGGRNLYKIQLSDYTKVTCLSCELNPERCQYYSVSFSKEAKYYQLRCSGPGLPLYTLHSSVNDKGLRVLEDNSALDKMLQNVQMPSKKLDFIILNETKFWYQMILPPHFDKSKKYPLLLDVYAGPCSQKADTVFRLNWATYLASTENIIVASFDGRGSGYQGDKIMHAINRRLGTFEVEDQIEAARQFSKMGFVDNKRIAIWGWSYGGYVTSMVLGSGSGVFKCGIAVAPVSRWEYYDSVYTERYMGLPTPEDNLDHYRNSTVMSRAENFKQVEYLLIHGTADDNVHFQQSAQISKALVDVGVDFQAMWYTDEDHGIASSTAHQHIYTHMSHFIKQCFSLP
The IC50 (nM) values in Table 5 are expressed as the mean SEM of at least three independent determinations.

Test [3] addresses T1, human GIP receptor (HEK-GIPR membranes) (Homo sapiens, UniProt P48546).
T1 construct: expressed in transfected cells
T1 sequence (P48546 22-466): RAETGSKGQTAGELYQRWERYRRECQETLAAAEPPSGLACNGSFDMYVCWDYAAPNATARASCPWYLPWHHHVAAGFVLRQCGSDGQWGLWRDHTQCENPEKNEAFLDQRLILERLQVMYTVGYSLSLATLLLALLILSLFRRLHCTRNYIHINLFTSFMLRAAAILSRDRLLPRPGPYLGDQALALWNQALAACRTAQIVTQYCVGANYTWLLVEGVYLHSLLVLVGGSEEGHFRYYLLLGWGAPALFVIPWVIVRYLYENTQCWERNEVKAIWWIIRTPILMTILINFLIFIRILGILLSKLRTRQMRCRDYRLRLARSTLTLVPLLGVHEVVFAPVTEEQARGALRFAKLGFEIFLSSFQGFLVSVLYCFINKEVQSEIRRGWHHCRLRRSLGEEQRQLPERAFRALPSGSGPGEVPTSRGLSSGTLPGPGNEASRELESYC
In words: GIP receptor binding displacement assay (RBA). To be noted: read-out: GIP RBA % inhibition at 10 nM; 10 nM conjugate, 30 pM 125I-GIP. The protocol:
Membrane fractions were prepared from confluent cell cultures of HEK-GIPR, snap frozen, and stored at −80° C. until use. […] Reactions were allowed to proceed to equilibrium for 90 minutes at room temperature with constant shaking. The reaction mixtures were then filtered through 96-well glass fiber filter plates separating bound and unbound fractions of radioligand.

The test system of test [4] is Dahl salt-sensitive (DSS) male rats. In words: Congestive heart failure (CHF) in vivo assay. As to conditions: week 5, high-salt diet, 10 μg/kg/day sc infusion.
Method: In this assay, Dahl salt-sensitive (DSS) male rats were weaned at 21 days of age, maintained on a low-salt (LS) diet (0.2% NaCl) for 2 weeks. Rats were anesthetized with ketamine/xylazine (50 mg/kg/10 mg/kg, IP) and telemetry transmitters (Data Sciences, Inc.) were inserted to the aortic artery when rats were at 5 weeks of age. After surgery, the rats were allowed 10 days to recuperate before their BP (systolic and diastolic pressures) was recorded.
HS control animals (n=10 rats) were administered vehicle (50% DMSO) and fed HS in the same manner. LS control animals (n=5 rats) were maintained on the LS diet.

Take `NCCc1ccc(S(=O)(=O)F)cc1` [AEBSF, 4-(2-aminoethyl)-benzenesulfonylfluoride, reference compound]: in test [1] (protease inhibitor at 1 mM), the “inhibition of plasma carboxypeptidase activity” value was “inhibited”.
On to “^36N-methyl-Tyr-amide-PYY(22-36) (ASLRHYLNLVTRQRY; HELM PEPTIDE1{A.S.L.R.H.Y.L.N.L.V.T.R.Q.R.[meY].[am]}$$$$V2.0; N-terminus assumed; SMILES CC(C)C[C@H](NC(=O)[C@H](CO)NC(=O)[C@H](C)N)C(=O)N[C@@H](CCCNC(=N)N)C(=O)N[C@@H](Cc1c[nH]cn1)C(=O)N[C@@H](Cc1ccc(O)cc1)C(=O)N[C@@H](CC(C)C)C(=O)N[C@@H](CC(N)=O)C(=O)N[C@@H](CC(C)C)C(=O)N[C@H](C(=O)N[C@H](C(=O)N[C@@H](CCCNC(=N)N)C(=O)N[C@@H](CCC(N)=O)C(=O)N[C@@H](CCCNC(=N)N)C(=O)N(C)[C@@H](Cc1ccc(O)cc1)C(N)=O)[C@@H](C)O)C(C)C) [N-terminal truncation of ^36N-methyl-Tyr-amide-PYY(3-36)]”, for which the “inhibition of formation of PYY(3-35)” value in test [1] is “measurable but lower activity”.
Same read-out and setting: then “^36N-methyl-Tyr-amide-PYY(34-36) (QRY; HELM PEPTIDE1{Q.R.[meY].[am]}$$$$V2.0; N-terminus assumed; SMILES CN(C(=O)[C@H](CCCNC(=N)N)NC(=O)[C@@H](N)CCC(N)=O)[C@@H](Cc1ccc(O)cc1)C(N)=O) [N-terminal truncation of ^36N-methyl-Tyr-amide-PYY(3-36)]”, with “did not inhibit”.
With `CC[C@H](C)[C@H](NC(=O)[C@H](CO)NC(=O)[C@H](Cc1ccc(O)cc1)NC(=O)[C@H](CC(=O)O)NC(=O)[C@H](CO)NC(=O)[C@@H](NC(=O)[C@H](Cc1ccccc1)NC(=O)[C@@H](NC(=O)CNC(=O)[C@H](CCC(=O)O)NC(=O)[C@H](C)NC(=O)[C@@H](N)Cc1ccc(O)cc1)[C@@H](C)O)[C@@H](C)CC)C(=O)N[C@@H](C)C(=O)N[C@@H](CC(C)C)C(=O)N[C@@H](CC(=O)O)C(=O)N[C@@H](CCCCN)C(=O)N[C@H](C(=O)N[C@@H](Cc1c[nH]cn1)C(=O)N[C@@H](CCC(N)=O)C(=O)N[C@@H](CCC(N)=O)C(=O)N[C@@H](CC(=O)O)C(=O)N[C@@H](Cc1ccccc1)C(=O)N[C@H](C(=O)N[C@@H](CC(N)=O)C(=O)N[C@@H](Cc1c[nH]c2ccccc12)C(=O)N[C@@H](CC(C)C)C(=O)N[C@@H](CC(C)C)C(=O)N[C@@H](C)C(=O)N[C@@H](CCC(N)=O)C(=O)N[C@@H](CCCCN)C(=O)NCCOCCOCC(=O)NCCCC[C@H](N)C(=O)N1CCC[C@H]1C#N)C(C)C)[C@@H](C)CC` [[Leu^14]GIP(1-30)-Ado-Lys-N-ε-(2-(S)-cyano pyrrolidyl)] (H-YAEGTFISDYSIALDKIHQQDFVNWLLAQK[AEEA][εLys]-{Pyrrolidine(2S-CN)}), the IC50 (usually the concentration that gives 50% inhibition) in test [2] is 109 ± 1 nM. Moreover, the inhibition (commonly how much of the control response was suppressed) at 0.01 µM in test [3] amounted to 100%.
For `CC[C@H](C)[C@H](NC(=O)[C@H](CO)NC(=O)[C@H](Cc1ccc(O)cc1)NC(=O)[C@H](CC(=O)O)NC(=O)[C@H](CO)NC(=O)[C@@H](NC(=O)[C@H](Cc1ccccc1)NC(=O)[C@@H](NC(=O)CNC(=O)[C@H](CCC(=O)O)NC(=O)[C@H](C)NC(=O)[C@H](Cc1ccc(O)cc1)NC(=O)COCCOCCNC(=O)COCCOCCNC(=O)CC[C@H](N)C(=O)N1CCC[C@H]1C#N)[C@@H](C)O)[C@@H](C)CC)C(=O)N[C@@H](C)C(=O)N[C@@H](CCSC)C(=O)N[C@@H](CC(=O)O)C(=O)N[C@@H](CCCCN)C(=O)N[C@H](C(=O)N[C@@H](Cc1c[nH]cn1)C(=O)N[C@@H](CCC(N)=O)C(=O)N[C@@H](CCC(N)=O)C(=O)N[C@@H](CC(=O)O)C(=O)N[C@@H](Cc1ccccc1)C(=O)N[C@H](C(=O)N[C@@H](CC(N)=O)C(=O)N[C@@H](Cc1c[nH]c2ccccc12)C(=O)N[C@@H](CC(C)C)C(=O)N[C@@H](CC(C)C)C(=O)N[C@@H](C)C(=O)N[C@@H](CCC(N)=O)C(=O)N[C@@H](CCCCN)C(=O)O)C(C)C)[C@@H](C)CC` [N-(γ-L-Glu-2-(S)-cyanopyrrolidyl)-Ado-Ado) GIP(1-30)], in that order: 64 ± 8 nM and 32%.
The corresponding values for `CC[C@H](C)[C@H](NC(=O)[C@H](CO)NC(=O)[C@H](Cc1ccc(O)cc1)NC(=O)[C@H](CC(=O)O)NC(=O)[C@H](CO)NC(=O)[C@@H](NC(=O)[C@H](Cc1ccccc1)NC(=O)[C@@H](NC(=O)CNC(=O)[C@H](CCC(=O)O)NC(=O)[C@H](C)NC(=O)[C@@H](N)Cc1ccc(O)cc1)[C@@H](C)O)[C@@H](C)CC)C(=O)N[C@@H](C)C(=O)N[C@@H](CCSC)C(=O)N[C@@H](CC(=O)O)C(=O)N[C@@H](CCCCN)C(=O)N[C@H](C(=O)N[C@@H](Cc1c[nH]cn1)C(=O)N[C@@H](CCC(N)=O)C(=O)N[C@@H](CCC(N)=O)C(=O)N[C@@H](CC(=O)O)C(=O)N[C@@H](Cc1ccccc1)C(=O)N[C@H](C(=O)N[C@@H](CC(N)=O)C(=O)N[C@@H](Cc1c[nH]c2ccccc12)C(=O)N[C@@H](CC(C)C)C(=O)N[C@@H](CC(C)C)C(=O)N[C@@H](C)C(=O)N[C@@H](CCC(N)=O)C(=O)N[C@@H](CCCCNC(=O)COCCOCCNC(=O)CC[C@H](N)C(=O)N1CCC[C@H]1C#N)C(N)=O)C(C)C)[C@@H](C)CC` [Lys^30N-ε-(Ado-(γ-L-Glu-2-(S)-cyanopyrrolidyl)) GIP(1-30)] are 49 ± 6 nM and 33%.
`CC[C@H](C)[C@H](NC(=O)[C@H](Cc1ccccc1)NC(=O)[C@H](CC(C)C)NC(=O)[C@H](CCCNC(=N)N)NC(=O)[C@@H](NC(=O)[C@H](C)NC(=O)[C@H](CCC(=O)O)NC(=O)[C@H](CCC(=O)O)NC(=O)[C@H](CCC(=O)O)NC(=O)[C@H](CC(C)C)NC(=O)[C@H](CCC(N)=O)NC(=O)[C@H](CCCCN)NC(=O)[C@H](CO)NC(=O)[C@H](CC(C)C)NC(=O)[C@H](CC(=O)O)NC(=O)[C@H](CO)NC(=O)[C@@H](NC(=O)[C@H](Cc1ccccc1)NC(=O)[C@@H](NC(=O)CNC(=O)[C@H](CCC(=O)O)NC(=O)CNC(=O)[C@@H](N)Cc1c[nH]cn1)[C@@H](C)O)[C@@H](C)O)C(C)C)C(=O)N[C@@H](CCC(=O)O)C(=O)N[C@@H](Cc1c[nH]c2ccccc12)C(=O)N[C@@H](CC(C)C)C(=O)N[C@@H](CCCCN)C(=O)N[C@@H](CCC(N)=O)C(=O)NCC(=O)NCC(=O)N1CCC[C@H]1C(=O)N[C@@H](CO)C(=O)N[C@@H](CCCCN)C(=O)N[C@@H](CCC(=O)O)C(=O)N[C@H](C(=O)N[C@H](C(=O)N[C@@H](CO)C(=O)NCCOCCOCCOCC(=O)NCCOCCOCC(=O)NCCCC[C@H](NC(CCc1ccccc1)C(=O)O)C(=O)N1CCC[C@H]1C(=O)O)[C@@H](C)CC)[C@@H](C)CC` (stereo partly shown) [Compound 5715]: in test [4], the “mean diastolic blood pressure” value was determined as 112 mmHg, the mean heart rate came to 381 and the “mean systolic blood pressure” value is listed as 161 mmHg.
With `CNC(Cc1ccc(O)cc1)C(N)=O` (stereo not shown) [N-methyl-Tyr-NH2], the “inhibition of formation of PYY(3-35)” value in test [1] is “did not inhibit”.

The record behind these values is patent US8759295B2, “Peptide-peptidase inhibitor conjugates and methods of using same” (Amylin Pharmaceuticals, LLC, priority 2006, dated 2014).
